Measured values from US5834014A, “Stimulation of hair follicles” (priority 1995, dated 1998).

Assays:
[1] = in vivo and in vitro, topical administration; cited from earlier work
[2] = transport of water-soluble material by association with nonionic vesicles

CC(=O)[C@H]1CC[C@H]2[C@@H]3CCC4=CC(=O)CC[C@]4(C)[C@H]3CC[C@]12C [progesterone]
effect of phospholipid liposomes on penetration into the skin [1]: do not improve penetration

carboxyfluoroscein
transport by association with nonionic vesicles [2]: transported to a greater extent

C[C@]12CC[C@@H]3c4ccc(O)cc4CC[C@H]3[C@@H]1CC[C@@H]2O [estradiol]
effect of phospholipid liposomes on penetration into the skin [1]: do not improve penetration

TGF-α: water-soluble material tested for transport by association with nonionic vesicles
transport by association with nonionic vesicles [2]: transported to a greater extent

C[C@]12CCC(=O)C=C1CC[C@@H]1[C@@H]2[C@@H](O)C[C@@]2(C)[C@H]1CC[C@]2(O)C(=O)CO [hydrocortisone]
effect of phospholipid liposomes on penetration into the skin [1]: do not improve penetration
